According to US9408828B2, “(+)-3′-angeloyloxy-4′-keto-3′,4′-dihydroseselin for treating inflammation” (Hong Kong Baptist University, priority 2014, dated 2016):

Experiments:
COX-2 = test: Western blot of COX-2 protein in LPS-stimulated RAW-Blue cells; type: cell-based, murine; conditions: LPS 1 μg/mL, 5, 10, 20 μg/mL, 20 h
Method: (§1) Data are derived from three independent experiments and presented as mean±SEM. ^#Compared with control group. *P<0.05, **P<0.01 and ***P<0.001 are compared with LPS-alone group.
(§2) After Raw-Blue cells are treated with LPS and Pd-Ib, whole cell extract is prepared with lysis buffer [1% Triton X-100, 0.1% SDS, 0.5% deoxycholate, 1 mM EDTA, 20 mM Tris (pH 7.4), 150 mM NaCl, 10 mM NaF, 1 mM Na3VO4, 0.1 mM phenylmethylsulfonyl fluoride and one protease inhibitor cocktail tablet (Roche, USA)]. Total protein concentration is measured using a protein assay kit, followed by centrifugation at 13,500 rpm for 15 minutes at 4° C., then 10-25 μg of protein from the supernatants is then separated on 10% sodium dodecylsulphate-polyacrylamide gel (SDS-PAGE) and transferred on to polyvinylidene difluoride membranes. After blocking with 5% skim milk powder in Tris-buffered saline-Tween (TBST; 50 mM Tris, 150 mM NaCl, pH 7.4; 0.01% Tween-20) for 1 hour at room temperature, the membrane is then incubated with primary antibody (1:5,000 dilution) in 5% skim milk in TBST overnight at 4° C. […] The membrane is rewashed (TBST; 3×10 min), and the immune-reactive proteins are detected by enhanced chemiluminescence using X-ray film and ECL reagent. The protein bands are quantified by measuring the relative intensity compared to the control using Image J Software (version 4.1.7, NIH, USA).

iNOS = test: Western blot of iNOS protein in LPS-stimulated RAW-Blue cells; type: cell-based, murine; conditions: LPS 1 μg/mL, 5, 10, 20 μg/mL, 20 h
Method: as §1, §2

C/C=C(\C)C(=O)OC1C(=O)c2c(ccc3ccc(=O)oc23)OC1(C)C (single isomer, unassigned; (+)) [Pd-Ib, (+)-3′-Angeloyloxy-4′-keto-3′,4′-dihydroseselin]
COX-2 protein level (COX-2): strongly down-regulates
iNOS protein level (iNOS): strongly down-regulates
